What was measured:
T. brucei BSF = assay: Toxicity (EC50) in bloodstream form T. brucei; assay type: cell-based, Trypanosoma brucei
Source text: (§1) Fig 1 Labelling and detection of B-THP-T target(s). (A) Structures of chamuvarinin and simplified analogues thereof as probes used in this study and their respective toxicity in selected cell lines. Bi-functional compound 3 contains a diazirine (blue) to cross-link the compound to its target and an alkyne handle (red) to which an azide-containing reporter probe can be added. Mono-functional compound 2 contains the diazirine to cross-link to its target but lacks the alkyne handle and cannot be appended with an azide reporter probe. Lead B-THP-T, compound 1, lacks both diazirine and alkyne. The additional functional groups on compounds 2 and 3 are minor alterations, which have little effect on inhibitor potency. (B) Overview of the in vivo pulse-chase photo-affinity labelling procedure. B-THP-T were incubated with live PF T. brucei cells and trafficked to their targets. Following UV-irradiation, only compounds containing a diazirine (i.e. compounds 2 and 3) could cross-link with target proteins. The subsequent “click reaction” appended the conjugated B-THP-T with a reporter probe as long as an alkyne handle was present (i.e. on compound 3). Refer to the experimental section for details. (C) Detection of Cy5.5-tagged proteins following photo-affinity labelling. Proteins were separated by SDS-PAGE and conjugated Cy5.5 was detected at 700 nm. Lanes 1–3 correspond to usage of compounds 1–3 respectively. Several proteins in lane 3 were conjugated with Cy5.5 via labelling with bi-functional compound 3. […]

T. brucei PF = assay: Toxicity (EC50, cell viability) in procyclic form T. brucei; assay type: cell-based; conditions: Trypanosoma brucei, live cells, 72 h incubation, footnote a
Source text: as §1
The potency of lead B-THP-T, compound 1, was determined against oxidative phosphorylation in dose-response assays in digitonin-permeabilised PF T. brucei.
Supplementary file pntd.0005886.s001.tiff: S1 Fig Dose-response of B-THP-T compounds in PF T. brucei. EC50 values were determined for compounds 1–3 in PF T. brucei. […]

[1] = test system: cellular ATP production in PF T. brucei; assay: ATP monitoring in live PF cells (proline as sole carbon source, bioluminescence); assay type: cell-based, Trypanosoma brucei; conditions: 2 h, normalised to no inhibitor control
Method: We first set out to determine if B-THP-T compounds affected cellular ATP levels. PF T. brucei were incubated in buffered PBS with/without proline as the sole carbon source and various inhibitors for 2 h. Cells were harvested and their ATP content was determined by bioluminescence assay. Two ETC inhibitors were used as positive control: malonate is a competitive inhibitor of mitochondrial complex II and prevents the […] of succinate to fumarate and entry of electrons to the ETC; and antimycin A (AA) is a mitochondrial complex III inhibitor, which prevents the transfer of electrons to cytochrome c and ubiquinone recycling. […] Compound 1 inhibited ATP production in a dose-response manner to similar levels (by 55 ± 6%), supporting the hypothesis from pull-down data that its target is involved in the ATP production pathway from proline.
Fig 4 B-THP-Ts decrease cellular ATP levels. PF T. brucei cells were incubated in buffered PBS with/without proline (as sole carbon source) and various inhibitors (concentrations indicated) incubated for 2 h, after which cells were harvested and cellular ATP levels were monitored by bioluminescence assay. Key: NS, no substrate; NI, no inhibitor control; Malonate (complex II inhibitor) AA, antimycin A (AA, complex III inhibitor). Background relative light units (RLU) were subtracted from measurements and % ATP production normalised to the no inhibitor control. Data were averaged from two independent experiments, each performed in duplicate (n = 4). Error bars show standard deviations. […]
Effects of compounds on proline metabolism were determined using a methodology adapted from Podolec et al. Briefly, glucose-free-conditioned PF T. brucei cells were washed into buffered PBS and incubated in 200 μl volumes with inhibitors for 10 min. […] Supernatants containing metabolic end-products and citrate standard were analysed to evaluate effects on proline metabolism (see below), while the ATP content of cells was determined as follows. […] ATP content was determined as above.

HeLa = assay: Toxicity (EC50) in HeLa cells; assay type: cell-based; conditions: Homo sapiens, footnote b, read-out: EC50 values Mammal HeLa
Source text: Fig 1 Labelling and detection of B-THP-T target(s). (A) Structures of chamuvarinin and simplified analogues thereof as probes used in this study and their respective toxicity in selected cell lines. Bi-functional compound 3 contains a diazirine (blue) to cross-link the compound to its target and an alkyne handle (red) to which an azide-containing reporter probe can be added. Mono-functional compound 2 contains the diazirine to cross-link to its target but lacks the alkyne handle and cannot be appended with an azide reporter probe. Lead B-THP-T, compound 1, lacks both diazirine and alkyne. The additional functional groups on compounds 2 and 3 are minor alterations, which have little effect on inhibitor potency. (B) Overview of the in vivo pulse-chase photo-affinity labelling procedure. B-THP-T were incubated with live PF T. brucei cells and trafficked to their targets. Following UV-irradiation, only compounds containing a diazirine (i.e. compounds 2 and 3) could cross-link with target proteins. The subsequent “click reaction” appended the conjugated B-THP-T with a reporter probe as long as an alkyne handle was present (i.e. on compound 3). Refer to the experimental section for details. (C) Detection of Cy5.5-tagged proteins following photo-affinity labelling. Proteins were separated by SDS-PAGE and conjugated Cy5.5 was detected at 700 nm. […]

Compound | Selectivity towards T. brucei over mammalian HeLa cells (T. brucei BSF; from EC50 values of Fig 1) | EC50 (T. brucei PF) [µM] | Inhibition of cellular ATP production [1] [%] | EC50 (T. brucei BSF; Trypanosoma brucei, bloodstream form, footnote b) [µM] | EC50 (HeLa) [µM]
CCCCCC[C@H]1CCC[C@@H](Cn2cc([C@@H]3CCC[C@H](CCCCO)O3)nn2)O1 [Compound 1] | only modest selectivity | 8.4 | 55 ± 6 | – | –
C#CCNC(=O)CCC[C@H]1CC2(C[C@@H](Cn3cc([C@@H]4CCC[C@H](CCCCOCc5ccccc5)O4)nn3)O1)N=N2 [Compound 3] | – | 16.1 ± 0.6 | – | 13 ± 1 | 21.3 ± 2
CCCCCC[C@H]1C(=O)O[C@H](C)[C@H](NC(=O)c2cccc(NC=O)c2O)C(=O)O[C@@H](C)[C@@H]1OC(=O)CC(C)C [antimycin A] | – | – | 71 ± 9 | – | –
O=C(O)CC(=O)O [malonate] | – | – | 62 ± 15 | – | –

Reference: article PMC5608556, “Photo-affinity labelling and biochemical analyses identify the target of trypanocidal simplified natural product analogues” (PLoS Neglected Tropical Diseases, 2017)
